Reference: patent US9901578B2, “Combination of 10-propargyl-10-deazaaminopterin and erlotinib for the treatment of non-small cell lung cancer” (Allos Therapeutics, Inc., priority 2007, dated 2018)
Values joined by “and” are separate entries in the source; they are usually repeats but may differ in a detail not shown here. Identical values can stand only once. “Also recorded” adds a separate entry of the source. Like-named read-outs stand apart in the source and are kept apart here.

How the values were obtained:
[1] = system: H460 cells; assay: Short-term uptake of radiolabeled drug in H460 cells; type: cell-based, human; details: for Total uptake of radiolabeled drug: measured at 15 and 60 minutes, PDX, MTX 5 μM, Alimta 20 μM
[2] = system: FPGS activity (polyglutamylation); assay: Polyglutamylation of radiolabeled drug in H460 cells; type: cell-based, human; details: lysates of treated H460 cells; PDX, MTX 5 μM, Alimta 20 μM
[3] = system: A549 cells; assay: In vitro growth inhibition in A549 cells; type: cell-based, human
Protocol: The human non small lung carcinoma cell line A549 was purchased from the American Type Culture Collection (ATCC, Manassas, Va.). The cell line was cultured in Ham's F 12K medium with 2 mM L-glutamine 1.5 g/L sodium bicarbonate, supplemented with 10% fetal bovine serum and was maintained at 37° C. in a humidified atmosphere at 5% CO2 and 95% air.
An in vitro study in A549 cells was performed to compare the growth inhibition activity of PDX to that of cisplatin, paclitaxel, and docetaxel.

[4] = system: A549 xenograft; assay: A549 xenograft mouse model, tumor volume; type: in vivo, athymic nu/nu mice; details: for Effect on tumor growth: 35 days
Protocol: Xenotransplant of A549 was established by subcutaneous inoculation of 5×10^6 cells on the right flank using a 21G needle in 6-8 week female athymic nude mice. A total of 75 animals were injected with A549 xenotransplant. Tumor volume was monitored twice weekly, once the established tumor reached 75-150 mm^3 (individual tumor range between 70 to 200 mm^3) the mice were randomized to the different groups as described in Table 2.
Tumor volume and body weights were measured twice weekly up to 58 days following A549 inoculation. Tumor volume was calculated using the following formula: Tumor volume=(A^2×B/2) where A is the smallest diameter and B is the largest diameter.
The treatment was initiated on the day of randomization according to the schedule described in Table 2. PDX was administered via IP injection and Tarceva® by oral gavage. PBS and 0.5% CMC were administrated to Group 1 as control vehicles by IP and PO routes, respectively.
Statistical analysis was performed using Graphpad Prism software. Comparison between control group and treatment groups was performed using 2 way ANOVA analysis.

[5] = system: TS enzymatic activity and protein expression, and DHFR protein content; assay: Activity/expression of folate-dependent enzymes in harvested tumors; type: in vivo; details: H460 and MV522 tumor xenografts
Excerpt: (§1) Endpoints included mean tumor growth inhibition or regression. We further evaluated activity and/or expression of folate-dependent enzymes: DHFR, thymidylate synthase (TS), and folylpolyglutamate synthase (FPGS) using kinetic assays and immunostaining in tumors harvested at the end of the study from animals treated with the antifolates or vehicle controls. In vitro studies included evaluation of reduced folate carrier (RFC) expression by quantitative RT-PCR in MV522, and H460, xenograft models. […] Inhibition of DHFR by the three antifolates was quantified in a cell-free assay against human recombinant DHFR.

[6] = system: MV522 xenografts; assay: MV522 non-small cell lung carcinoma human tumor xenograft; type: in vivo; details: PDX 1 mg/kg and 2 mg/kg
Excerpt: as §1

[7] = biological target: T1, human recombinant DHFR (Homo sapiens, UniProt P00374); assay: DHFR inhibition in a cell-free assay; type: biochemical; details: read-out: Apparent Ki for DHFR inhibition
T1 sequence (P00374 1-187): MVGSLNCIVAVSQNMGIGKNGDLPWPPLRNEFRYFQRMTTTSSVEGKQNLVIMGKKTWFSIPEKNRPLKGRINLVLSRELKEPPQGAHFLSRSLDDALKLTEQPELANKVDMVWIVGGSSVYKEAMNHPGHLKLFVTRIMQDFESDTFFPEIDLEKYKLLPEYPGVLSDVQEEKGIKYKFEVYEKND
Excerpt: as §1

[8] = Protocol: To evaluate the doses to be tested in the xenograft mouse model, non-tumor bearing female athymice nu/nu mice were treated with 2 mg/kg of PDX alone and in combination with 50 mg/kg of Tarceva® as described in Table 1. Animals were monitored daily for routine health observation. Body weight of the animals was recorded daily during the treatment phase and thereafter twice weekly for 14 days after the last treatment).
[9] = system: H460 xenografts; assay: H460 non-small cell lung carcinoma human tumor xenograft; type: in vivo; details: PDX 1 mg/kg and 2 mg/kg
Excerpt: as §1

## CN(Cc1cnc2nc(N)nc(N)c2n1)c1ccc(C(=O)N[C@@H](CCC(=O)O)C(=O)O)cc1 [MTX, methotrexate]
[1]; in comparison with PDX or Alimta
  Fraction of radiolabeled drug that entered the cells: significantly smaller fraction
[2]
  Polyglutamylation: much lesser polyglutamylation

## Nc1nc2[nH]cc(CCc3ccc(C(=O)N[C@@H](CCC(=O)O)C(=O)O)cc3)c2c(=O)[nH]1 [Alimta, pemetrexed]
[1]
  Total uptake of radiolabeled drug: decreased later
[2]
  Polyglutamylation: much lesser polyglutamylation

## CC(=O)O[C@@]12CO[C@@H]1C[C@H](O)[C@@]1(C)C(=O)[C@H](O)C3=C(C)[C@@H](OC(=O)[C@H](O)[C@@H](NC(=O)OC(C)(C)C)c4ccccc4)C[C@@](O)([C@@H](OC(=O)c4ccccc4)[C@H]21)C3(C)C [Docetaxel]
[3]; Homo sapiens
  IC50: 23.6 nM

## N.N.[Cl][Pt][Cl] [Cisplatin]
[3]
  IC50: 22.4 nM

## C#CCC(Cc1cnc2nc(N)nc(N)c2n1)c1ccc(C(=O)N[C@@H](CCC(=O)O)C(=O)O)cc1 (stereo partly shown) [PDX, 10-Propargyl-10-deazaaminopterin]
[4]; PDX 1 mg/kg IP QDx5 two cycles
  Effect on tumor growth: a trend in reducing tumor growth; also recorded: a trend toward controlling tumor growth
[4]; PDX 1 mg/kg IP QDx5 two cycles, day 0
  Tumor volume Avg ± SD: 132 ± 52. mm^3
[4]; PDX 1 mg/kg IP QDx5 two cycles, day 3
  Tumor volume Avg ± SD: 148 ± 67. mm^3
[4]; PDX 1 mg/kg IP QDx5 two cycles, day 7
  Tumor volume Avg ± SD: 176 ± 87. mm^3
[4]; PDX 1 mg/kg IP QDx5 two cycles, day 10
  Tumor volume Avg ± SD: 158 ± 93. mm^3
[4]; PDX 1 mg/kg IP QDx5 two cycles, day 14
  Tumor volume Avg ± SD: 199 ± 79. mm^3
[4]; PDX 1 mg/kg IP QDx5 two cycles, day 17
  Tumor volume Avg ± SD: 190 ± 78. mm^3
[4]; PDX 1 mg/kg IP QDx5 two cycles, day 21
  Tumor volume Avg ± SD: 179 ± 112 mm^3
[4]; PDX 1 mg/kg IP QDx5 two cycles, day 24
  Tumor volume Avg ± SD: 191 ± 105 mm^3
[4]; PDX 1 mg/kg IP QDx5 two cycles, day 28
  Tumor volume Avg ± SD: 201 ± 114 mm^3
[4]; PDX 1 mg/kg IP QDx5 two cycles, day 35
  Tumor volume Avg ± SD: 224±128 mm^3
[4]; PDX 2 mg/kg IP QDx5 two cycles
  Effect on tumor growth: a trend in reducing tumor growth; also recorded: a trend toward controlling tumor growth; also recorded: inhibited the growth of the A549 xenografts
[4]; PDX 2 mg/kg IP QDx5 two cycles, day 0
  Tumor volume Avg ± SD: 131 ± 49. mm^3
[4]; PDX 2 mg/kg IP QDx5 two cycles, day 3
  Tumor volume Avg ± SD: 133 ± 60. mm^3
[4]; PDX 2 mg/kg IP QDx5 two cycles, day 7
  Tumor volume Avg ± SD: 166 ± 75. mm^3
[4]; PDX 2 mg/kg IP QDx5 two cycles, day 10
  Tumor volume Avg ± SD: 139 ± 70. mm^3
[4]; PDX 2 mg/kg IP QDx5 two cycles, day 14
  Tumor volume Avg ± SD: 207 ± 100 mm^3
[4]; PDX 2 mg/kg IP QDx5 two cycles, day 17
  Tumor volume Avg ± SD: 174 ± 104 mm^3
[4]; PDX 2 mg/kg IP QDx5 two cycles, day 21
  Tumor volume Avg ± SD: 194 ± 114 mm^3
[4]; PDX 2 mg/kg IP QDx5 two cycles, day 24
  Tumor volume Avg ± SD: 194 ± 101 mm^3
[4]; PDX 2 mg/kg IP QDx5 two cycles, day 28
  Tumor volume Avg ± SD: 189 ± 106 mm^3
[4]; PDX 2 mg/kg IP QDx5 two cycles, day 35
  Tumor volume Avg ± SD: 210±109 mm^3
[1]
  Total uptake of radiolabeled drug: increased over time
[2]
  Polyglutamylation: greater polyglutamylation
[5]
  Effect on TS enzymatic activity and protein expression, and DHFR protein content: down-regulated most of these endpoints
[3]; Homo sapiens
  IC50: 65.1 nM
[6]
  Tumor growth: dose-dependently inhibited tumor growth
[7]
  Ki: 45 nM
[8]; PDX 2 mg/kg IP QDx5 two cycles, Tarceva 50 mg/kg PO QDx21, alone or combined
  Tolerability: well tolerated
[9]
  Tumor growth: dose-dependently inhibited tumor growth

## CC(=O)O[C@H]1C(=O)[C@@]2(C)[C@H]([C@H](OC(=O)c3ccccc3)[C@]3(O)C[C@H](OC(=O)[C@H](O)[C@@H](NC(=O)c4ccccc4)c4ccccc4)C(C)=C1C3(C)C)[C@]1(OC(C)=O)CO[C@@H]1C[C@@H]2O [Paclitaxel]
[3]; Homo sapiens
  IC50: 109 nM

## C#Cc1cccc(Nc2ncnc3cc(OCCOC)c(OCCOC)cc23)c1 [Tarceva, [6,7-bis(2-methoxyethoxy)-4-quinazolin-4-yl]-(3-ethynylphenyl)amine, reference compound]
[4]; Tarceva 50 mg/kg PO
  Effect on tumor growth: did not control tumor growth
[4]; Tarceva 50 mg/kg PO, day 0
  Tumor volume Avg ± SD: 131 ± 47. mm^3
[4]; Tarceva 50 mg/kg PO, day 3
  Tumor volume Avg ± SD: 166 ± 80. mm^3
[4]; Tarceva 50 mg/kg PO, day 7
  Tumor volume Avg ± SD: 216 ± 121 mm^3
[4]; Tarceva 50 mg/kg PO, day 10
  Tumor volume Avg ± SD: 214 ± 140 mm^3
[4]; Tarceva 50 mg/kg PO, day 14
  Tumor volume Avg ± SD: 249 ± 130 mm^3
[4]; Tarceva 50 mg/kg PO, day 17
  Tumor volume Avg ± SD: 271 ± 206 mm^3
[4]; Tarceva 50 mg/kg PO, day 21
  Tumor volume Avg ± SD: 270 ± 210 mm^3
[4]; Tarceva 50 mg/kg PO, day 24
  Tumor volume Avg ± SD: 294 ± 261 mm^3
[4]; Tarceva 50 mg/kg PO, day 28
  Tumor volume Avg ± SD: 308 ± 280 mm^3
[4]; Tarceva 50 mg/kg PO, day 35
  Tumor volume Avg ± SD: 358±282 mm^3 and 357 ± 282 mm^3
[8]; mouse, in vivo
  Tolerability: well tolerated
